Results taken from patent US9428732B2, “Compositions and methods for differentiating pluripotent stem cells into primitive blood cells and uses thereof” (Primorigen Biosciences, Inc., priority 2011, dated 2016).

Columns and labels:
[1] = test system: pluripotent stem cells (H1 ES cells and CB1 iPS cells); experiment: CFU assay of cells differentiated in Differentiation Medium 1 plus additional molecule; assay type: cell-based, human; settings: for size of CFU colonies: in the present system
Description: FIG. 14 depicts myeloid CFU cell count data for cells differentiated from pluripotent stem cells (H1 ES cells and CB1 iPS cells) in the presence of DEAB and each of Cripto (500 ng/ml), LY2228820 (shown as “LY222820”, 100 nM), Activin A, valproic acid (VPA, 1 mM), sodium selenite (100 nM), and butein (10 μM).
The differentiation cultures were trypsinized at the indicated time points and single-cell suspensions were generated following trypsinization. For the Colony Forming Unit (CFU) assays using methyl cellulose cultures, 25% of the cells were plated in 2 ml of MethoCult H4435 (STEMCELL Technologies, Vancouver, BC) in six-well plates. Alternatively, sorted CD45+, CD43+, CD34+, 7AAD-cells were sorted and plated at 500 cells per 2 ml Methocult media. Cells were incubated for 14 days in a humidified incubator at 37° C. with 5% CO2 and evaluated for colonies by bright-field microscopy (Zeiss (Oberkochen, Germany, www.zeiss.com) Axiovert 200 with a Zeiss Axiocam), Cells were resuspended in PBS supplemented with 2% FBS. For the lymphoid myeloid differentiation assays, either CD45+, CD43+, CD34+, 7AAD-hematopoietic progenitors, or CD45+, CD43+, CD34+, CD38−, CD90+, CD45RA− phenotypic HSCs were plated at 20-40 cells per well onto OP9 and OP9delta feeder lines for B-cell and T-cell differentiation, respectively, as previously described (Nozad Charoudeh H, Tang Y, Cheng M, Cilio C M, Jacobsen S E, Sitnicka E., Identification of an NK/T cell-restricted progenitor in adult bone marrow contributing to bone marrow- and thymic-dependent NK cell, Blood, 2010 Jul. 15; 116(2):183-92. NK cell differentiation as well as myeloid cell differentiation was also detected in this differentiation system. FACS analysis was performed 4-6 weeks after plating for markers of lymphoid cell differentiation with the markers indicated. Similar cell sortings were performed for single cell Terasaki plate assays of myeloid differentiation and expansion using StemSpan media (STEMCELL Technologies, Vancouver, BC) supplemented with TPO, SCF, FLT3, IL3, GM-CSF. Colony size was estimated by microscopy.
We have completed a number of studies to establish other molecules that may further improve the yields and phenotypes of hematopoietic cells derived using Differentiation Medium 1. Tested compounds were Cripto, LY2228820, valproic acid (VPA), sodium selenite, and butein. In all instances, each molecule below was supplemented into Differentiation Medium 1 to study their effect in concert with DEAB. […] The data we report below for these molecules illustrates how they may improve the yield of hematopoietic progenitors and phenotypic stem cells measured by FACS, flow cytometry, and CFU assays. […]

[2] = test system: pluripotent lines (ES, iPS); experiment: Additional molecules added to Differentiation Medium 1, FACS and flow cytometry; assay type: cell-based, human; settings: for total number of cells: added to Differentiation Medium 1 (contains DEAB): LG101506 1 uM, sodium selenite 100 nM, valproic acid 1 mM
Description: (§1) Cells from the differentiation cultures were collected at time points indicated and washed in phosphate-buffered saline (PBS) supplemented with 2% FBS. Adherent cells were individualized using TrypLE (Life Technologies, Carlsbad Calif.), passed through a 27.5-gauge needle and filtered through a 40-70 μm cell strainer (BD Falcon, San Diego, Calif., www.bdbiosciences.com). Cells were treated with 7-aminoactinomycin D (7AAD) before analysis, and positive cells were gated out of results. Cells were stained with fluorescence-conjugated antibodies for the hematopoietic stem and progenitor cell markers CD45, CD43, CD34, CD38, CD90; CD45RA. Cells were analyzed on a FACS Canto (BD, Franklin Lakes, N.J., www.bd.com).
We have completed a number of studies to establish other molecules that may further improve the yields and phenotypes of hematopoietic cells derived using Differentiation Medium 1. Tested compounds were Cripto, LY2228820, valproic acid (VPA), sodium selenite, and butein. In all instances, each molecule below was supplemented into Differentiation Medium 1 to study their effect in concert with DEAB. All control experiments for these molecules were cells differentiated using Differentiation Medium 1 (which already contains DEAB). The data we report below for these molecules illustrates how they may improve the yield of hematopoietic progenitors and phenotypic stem cells measured by FACS, flow cytometry, and CFU assays. […] The in vivo engraftment studies to confirm this for these molecules are underway.
(§2) It has been shown that DS DNA breaks reduce transplant efficiency of repopulating HSCs. In vitro derived blood from pluripotent stem cell has high levels of DNA damage. Inhibition of DNA damage and the DNA damage response, from reactive oxygen species (ROS) or other sources of damage (radiation, chemical etc) in pluripotent stem cell differentiation systems will decrease DNA damage and increase hematopoietic cell number, repopulating ability and increase the differentiation potential of the cells (i.e. expansion of downstream lineages). See Yahata et al. Blood, 2011, 118(11):2941-50). […] Adding sodium selenite (100 nM) and butein (10 uM) independently to Differentiation Medium 1 increased enzyme activity for protection against reactive oxygen species (ROS). […] See FIGS. 11A and 11B for sodium selenite and FIGS. 12A and 12B for butein. These studies are being expanded into dose response experiments from which we expect to identify optimal concentrations.
From the pluripotent stem cells differentiated with Differentiation Medium 1 supplemented with 1 mM of valproic acid, we see that all CD34+CD38− cells were 100% CD90+. […] Engraftment studies as described are also being conducted.

[3] = test system: NOD.Cg-Prkdc^scidI12rg^tm1Wjl/SzJ mice; experiment: Pluripotent stem cell derived hematopoietic cell transplantation, engraftment; assay type: in vivo; settings: Differentiation Medium 1 (containing DEAB) supplemented with the molecule; studies underway, predicted
Description: Single-cell suspensions of the pluripotent stem cell differentiation cultures described herein were injected into sublethally irradiated (325 rad) NOD.Cg-Prkdc^scidI12rg^tm1Wjl/SzJ mice (JAX, Bar Harbor, Me., www.jax.org) via tail vein injections, intrafemoral injection, or cardiac injection. Peripheral blood was harvested at times indicated via tail vein or retro-orbital eye bleed or cardiac puncture on anesthetized mice. Bone marrow and spleen cells were harvested at the terminal stage of the transplant experiment. Bone marrow cells were isolated via pestle mortar crushing of bone followed by rinsing and 70 micron filtering. Cells were analyzed by FACS, CFU assay, or transplanted serially into secondary and tertiary mice. FACS analysis for the human pan hematopoietic marker CD45, progenitor marker CD34, myeloid markers CD11b, CD15, CD33 and lymphoid markers CD19, CD56 and CD132, and erythroid markers CD235. When erythrocytes were not being analyzed, the red cells were lysed using ammonium chloride solution (0.8% NH4Cl with 0.1 mM EDTA) (STEMCELL Technologies, Vancouver, BC), spun, and stained with antibodies against the above-mentioned markers. All animal experiments were conducted in accordance with Institutional Animal ethical use protocols.
We have confirmed short-term engraftment and reconstitution ability of hPSC-derived HSCs produced as described in Example 1, by injecting them into sublethally irradiated (325 rad) NOD.Cg-Prkdc^sicdI12rg^tm1Wjl/SzJ mice (JAX, Bar Harbor, Me., www.jax.org) via tail vein injections, intrafemoral injection, or cardiac injection. We transplanted NOD.Cg-Prkdc^scidI12rg^tm1Wjl/SzJ mice with 3×10^6 unsorted cells or 5000 FACS sorted phenotypic HSCs (CD45+, CD43+, CD34+, CD38−, CD90+, CD45RA−) from differentiations using Differentiation Medium 1 medium not including with DEAB (Control) and Differentiation Medium 1 medium including DEAB (DEAB HSCs). […] Typical published values range from 0.1%-1.0%, including those obtained from our control where DEAB was not used to generate the HSCs (0.34%±0.1%).

[4] = test system: iPS cells; experiment: LY2228820 added to Differentiation Medium 1, flow cytometry, iPS cells; assay type: cell-based, human; settings: 100 nM LY2228820; FIG. 8B
Description: as §1
(§3) We conducted experiments to determine whether the p38 inhibitor LY2228820 could further increase hematopoietic progenitor and phenotypic stem cell outputs by acting in concert with DEAB when added to Differentiation Medium 1. Human ES and iPS cells were differentiated to progenitors and phenotypic stem cells as described, except 100 nM of LY2228820 was added to Differentiation Medium 1. Cells were then harvested as described and subjected to flow cytometry and FACS analysis using fluorescently labeled antibodies for CD45, CD43, CD34, CD38, CD90, CD45RA as described. […]

[5] = test system: H1 ES cells; experiment: LY2228820 added to Differentiation Medium 1, flow cytometry, ES cells; assay type: cell-based, human; settings: 100 nM LY2228820; FIG. 8A
Description: as §1, §3

[6] = test system: pluripotent stem cell differentiation cultures; experiment: Enzyme activity for protection against reactive oxygen species; assay type: cell-based, human; settings: added independently to Differentiation Medium 1: sodium selenite 100 nM, butein 10 uM
Source text: as §2

[7] = test system: human ES cells; experiment: Norepinephrine added to Differentiation Medium 1, flow cytometry; assay type: cell-based
Description: as §1
We conducted experiments to reveal if human embryo AGM region-harvested cells generate neurospheres in culture to confirm the presence of neural crest cells in the AGM region. We further completed some experiments to identify a component secreted from the neural crest cells that may be involved in definitive hematopoiesis. We harvested human embryo AGM region tissue and, using fluorescent labeled antibodies specific for neural crest cells, were able to identify the presence of neural crest cells in the AGM hematopoietic niche. […] Hypothesizing norepinephrine as a potential effector secreted from the neural crest cells, we tested it for its ability to further increase progenitor and phenotypic stem cell yields when added to Differentiation Medium 1 at a concentration of 10 uM or 300 uM. Human ES and iPS cells were differentiated to progenitors and phenotypic stem cells with Differentiation Medium 1 as described. The only difference is that 10 uM or 300 uM of norepinephrine was added to Differentiation Medium 1. Cells were then harvested as described and subjected to flow cytometry and FACS analysis using fluorescently labeled antibodies for CD45, CD43, CD34, CD38, CD90, CD45RA as described. […] Given the verified presence of neural crest cells in the AGM niche, we are confident that these cells play a role in establishing definitive hematopoiesis in the developing embryo. As such, long term engraftment and reconstitution ability of hematopoietic progenitors and phenotypic stem cells produced from iPS and ES cells differentiated with Differentiation Medium 1 plus norepinephrine as described above are currently underway. The engraftment and reconstitution studies will be conducted as described by the protocol outlined above in the Materials and Methods.

`C/C(=C/C=C/C(C)=C/C(=O)O)c1cc(C(C)(C)C)cc(C(C)(C)C)c1OCC(F)F` [LG101506] was tested, and the “CFU cellularity and output” value [1] was “enhances”, the “total output of CD90+ cells” value ([2]; LG101506 1 uM in Differentiation Medium 1, ES, iPS) was “increases” and the “total number of cells” value ([2]; butein 10 uM) was “increased”. The “suitability of generated phenotypic HSC cells for in vivo engraftment” value (shortened to “suitability”) [3] was “suitable for successful in vivo engraftment”.

In the case of `CC(C)(C)Cn1c(N)nc2ccc(-c3[nH]c(C(C)(C)C)nc3-c3ccc(F)cc3)nc21` [LY2228820], the “numbers of all cells with the progenitor and phenotypic stem cell phenotypes” value [4] is reported as “increased”, the “increase of phenotypic hematopoietic stem cell phenotype (CD45+, CD43+, CD34+, CD38−, CD90+, CD45RA−) over DEAB-containing Differentiation Medium 1 control” value [5] is reported as ~20% and the “levels of the intermittent progenitor phenotype (CD45+, CD43+, CD34+, CD38−)” value [5] is reported as “unaffected”. For the same molecule, the “size of CFU colonies” value [1] was “increases CFU size” and the “suitability” value [3] was “suitable for successful in vivo engraftment”.

`O=C(/C=C/c1ccc(O)c(O)c1)c1ccc(O)cc1O` [butein] was tested, and the “CD34+, CD38− cells” value ([2]; added independently to Differentiation Medium 1: sodium selenite 100 nM, butein 10 uM) was “increased”, the “total number of cells” value ([2]; butein 10 uM) was “increased” and the “suitability” value [3] was “suitable for successful in vivo engraftment”. The “enzyme activity for protection against reactive oxygen species (ROS)” value [6] was “increased”.

In the case of `NC[C@H](O)c1ccc(O)c(O)c1` [norepinephrine], the “increase in HSC number” value ([7]; hES-derived hematopoietic cells, norepinephrine in Differentiation Medium 1) is reported as 150%, the “fold improvement of numbers of phenotypic hematopoietic stem cells (CD45+, CD34+, CD43+, CD38−, CD90+, CD45RA−)” value ([7]; norepinephrine 10 uM or 300 uM in Differentiation Medium 1, FIG. 9C) is reported as “statistically significant increases” and the “total viable blood cells (CD45+)” value ([7]; norepinephrine 10 uM or 300 uM, FIG. 9A) is reported as “insignificant improvements”. The “intermediate cells (CD45+, CD43+, CD34+, CD38−)” value ([7]; norepinephrine 10 uM or 300 uM, FIG. 9B) was “insignificant improvements”, the colony forming ability ([1]; hES-derived hematopoietic cells, norepinephrine, data not shown) was “has an effect” and the “suitability” value [3] was “suitable for successful in vivo engraftment”.

With `CCCC(CCC)C(=O)O` [valproic acid] the “CD34+CD38− cells that were CD90+” value ([2]; Differentiation Medium 1 supplemented with 1 mM of valproic acid) was 100%, the “total number of cells” value ([2]; butein 10 uM) was “increased” and the “suitability” value [3] was “suitable for successful in vivo engraftment”.

B1: Cripto: protein expressed in hypoxic endosteal niche cells (protein, UniProt P13385 31-150, looked up)
Protein Cripto: LGHQEFARPSRGYLAFRDDSIWPQEEPAIRPRSSQRVPPMGIQHSKELNRTCCLNGGTCMLGSFCACPPSFYGRNCEHDVRKENCGSVPHDTWLPKKCSLCKCWHGQLRCFPQAFLPGCD
With B1 the “size of CFU colonies” value [1] was “increases the size” and the “suitability” value [3] was “suitable for successful in vivo engraftment”.
